In ChEMBL document CHEMBL1151967, “Cytotoxic biscembranes from the soft coral Sarcophyton glaucum” (J Nat Prod, 2009) one finds IC50 data, which are given here for six molecules.

The test system of the assay is HL-60. Description: Cytotoxicity against human HL60 cells. It counts as functional, cell-based.
As for `COC(=O)[C@]12CC(=O)[C@H](C(C)C)CC(=O)/C(C)=C/CC/C(C)=C\C(=O)[C@H]1CC(C)=C1C[C@H](O)[C@](C)(O)[C@H]3CC[C@@](C)(O)[C@H](CC/C(C)=C/[C@@H]12)O3` [BISGLAUCUMLIDE E], the IC50 is 41 µM. Turning to `COC(=O)[C@]12CC(=O)[C@H](C(C)C)CC(=O)/C(C)=C\CC/C(C)=C/C(=O)[C@H]1CC(C)=C1C[C@H](OC(C)=O)[C@](C)(O)[C@H]3CC[C@@](C)(O)[C@H](CC/C(C)=C/[C@@H]12)O3` [BISGLAUCUMLIDE F], the IC50 came out at 13.3 µM. In turn, `COC(=O)[C@]12CC(=O)/C=C(\C)CC/C=C(\C)C(=O)C[C@@H](C(C)C)C(=O)[C@H]1CC(C)=C1C[C@H](OC(C)=O)[C@](C)(O)[C@H]3CC[C@@](C)(O)[C@H](CC/C(C)=C/[C@@H]12)O3` [BISGLAUCUMLIDE K] had an IC50 of 29.8 µM. To `COC(=O)[C@]12CC(=O)[C@H](C(C)C)CC(=O)/C(C)=C/CC/C(C)=C\C(=O)[C@H]1CC(C)=C1C[C@H](O)[C@](C)(O)[C@H]3CC[C@@](C)(O3)[C@@H](O)CC/C(C)=C/[C@@H]12` [BISGLAUCUMLIDE H] belongs 47.8 µM; to `COC(=O)[C@]12CC(=O)[C@H](C(C)C)CC(=O)/C(C)=C/CC/C(C)=C/C(=O)[C@H]1CC(C)=C1C[C@H](O)[C@](C)(O)[C@H]3CC[C@](C)(O3)[C@@H](O)CC/C(C)=C/[C@@H]12` [BISGLAUCUMLIDE G], 58 µM. The molecule `COC(=O)[C@]12CC(=O)/C=C(/C)CC/C=C(\C)C(=O)C[C@@H](C(C)C)C(=O)[C@H]1CC(C)=C1C[C@H](O)[C@](C)(O)[C@H]3CC[C@@](C)(O)[C@H](CC/C(C)=C/[C@@H]12)O3` [BISGLAUCUMLIDE I] had an IC50 of 44.1 µM.
